From US6458577B1, “Methods of culturing and assaying a virus in a specimen and compositions and cell lines for doing the same” (priority 1997, dated 2002)
“And” between values parts separate entries of the source, which are not always exact repeats. Equal entries are not always repeated. Marks after values point to notes of the source that are not given here.

Key:
CMV in MRC-5 cells = test: CMV shell vial culture in NaB-treated MRC-5 cells, immunofluorescent staining, count of stained nuclei; assay type: cell-based, human; conditions: for counts of positive stained nuclei from 2 shell vials: 80 mM sodium butyrate 24 hours before infection, MRC-5, cell age 2 days; for MRC-5 cells # of stained nuclei: 2 mM CaCl2, 1% DMSO, 10^-5M dexamethasone after infection
Method: (§1) The cells were then treated with a 5 mM sodium butyrate (NaB) tissue culture solution, prepared by dissolving the appropriate amount of NaB in tissue culture media and filtering the solution, and incubated for 16 to 24 hours. After incubation the NaB and tissue culture media is removed and the treated cells are inoculated with 0.2 ml of CMV inoculum originally from a clinical specimen obtained from urine and prepared by putting the specimen into a viral transport medium containing Hank's buffer, 1% bovine albumin and the antibiotics penicillin (200 units/ml) and streptomycin (200 μg/ml) and the fungizone amphotericin (0.5 μg/ml). After inoculation the shell vials are centrifuged at 700×g for 45 minutes at 23° C. After centrifugation, 0.5 ml of fresh media is added to each vial and the vials are incubated at 37° C. for 16 to 24 hours. After incubation the media is removed and the cell layers are rinsed with phosphate buffered saline (PBS), fixed with cold acetone for 10 minutes, and rinsed again with PBS.
(§2) After fixing, the cells are stained by adding 100 μl of CMV monoclonal antibody (mAb), incubated at 37° C. for 45 minutes and then rinsed with PBS. The CMV mAb used is E-13 monoclonal antibody against immediate early (IE) antigen of CMV. This antibody is used as a primary antibody in the first step of staining and is available from Accurated Chemical and Scientific Co., Westbury, N.Y. After the first staining step 100 μl of biotin which is conjugated with antimouse IgG is added followed by additional incubation at 37° C. for 45 minutes. The biotin complex is available from Boerhinger Mannheim Co., Indianapolis, Ind. The cells are rinsed again with PBS after incubation and then incubated with 100 μl of streptavidin conjugated with fluorescein isothiocyanate (FITC) for 45 minutes at 37° C. The streptavidin complex is also available from Boerhinger Mannheim Co., Indianapolis, Ind. After a final rinse with PBS, a coverslip removed from the shell vial is mounted on the slide which is then examined under a fluorescence equipped microscope manufactured in Germany by Carl Zeiss, Inc., and available from W. Nuhsbaum, McHenry, II. The specific apple-green stained nuclei were counted. The results are reported in Table 1 as positive stained nuclei as an average of four shell vials.
Conventionally, human embryonic lung (HEL) fibroblast cells, such as the MRC-5 cell line which is available from Diagnostic Hybrids, Inc., Athens, Ohio, are used worldwide for CMV culture and viral isolation.
(§3) These examples were prepared using the same procedure as Example 1, except that the concentration of NaB used was varied and both mink lung cells and MRC-5 cells were used. Also, the MRC-5 were treated with NaB before infection and 2 mM CaCl2, 1% DMSO and 10^−5M dexamethasone after infection. Table 3 indicates the concentration of NaB used and the results obtained.
(§4) These examples used the same procedure as Example 1 for CMV growth except that the age of the cells were varied, the cells were treated with 80 mM sodium butyrate 24 hours before infection, and the MCR-5 cells were treated 2 mM calcium chloride (CaCl2), 1% dimethyl sulfoxide (DMSO)and 10^−5M dexamethasone after infection.
as §4, with “MRC-5” for “MCR-5”, “(DMSO), and” for “(DMSO)and”, “infection. The cell age is measured as the time after seeding of the cells in the shell vial.” for “infection.”

[1] = system: CMV in mink lung cells (ATCC No. CCL64); test: CMV shell vial culture in NaB-treated mink lung cells, immunofluorescent staining of IE antigen, count of stained nuclei; assay type: cell-based; conditions: for # of Foci (average # of stained nuclei counted from three shell vials): 80 mM sodium butyrate, mink lung
[2] = system: CMV in mink lung cells (ATCC No. CCL64); test: as above; assay type: cell-based; conditions: for Treated: average # of nuclei staining from three shell vials: 80 mM sodium butyrate 24 hours before CMV infection; for Treated: average # of nuclei staining from three shell vials / counts of positive stained nuclei from 2 shell vials / # of Foci (average # of stained nuclei counted from three shell vials): mink lung; for counts of positive stained nuclei from 2 shell vials: 80 mM sodium butyrate 24 hours before infection; for # of Foci (average # of stained nuclei counted from three shell vials): 80 mM sodium butyrate; for # positive stained nuclei: average of four shell vials
Method: (§5) Mink lung cells available from American Type Culture Collection ATTC No. CCL64 are provided. The cells are received in frozen vials from ATCC and are prepared by first thawing in a 37° C. water bath. The thawed cells are removed from the bath and cultured in a tissue culture flask with Opti MEM culture medium supplemented with 5% fetal calf serum and non-essential amino acids, available from Life Technologies, Inc., of Gaithersburg, Md., and the antibiotics penicillin (100 units/ml), streptomycin (100 μg/ml) and the fungizone amphotericin (0.25 μg/ml). The cultured cells reach a complete monolayer in about 3 to 4 days. The mink lung cells are propagated by trypsinization and approximately 2.5×10^5 dispersed cells per shell vial are seeded in shell vials with cover slips. The shell vials are incubated at 37° C. for 24 hours or until the cells form a monolayer.
as §1
as §2, with “vials. […]” for “vials.”
as §3, with “obtained. […]” for “obtained.”
These examples used the same procedure as Example 1 for CMV growth except that the time of treatment with sodium butyrate was varied, i.e., the cells were treated with 80 mM sodium butyrate for different times before infection, and the MRC-5 cells were treated with 2 mM calcium chloride (CaCl2), 1% dimethyl sulfoxide (DMSO) and 10^−5M dexamethasone after infection.

HSV-1 in mink lung cells = test: HSV-1 shell vial culture in NaB-treated mink lung cells, foci of cytopathic effect under light microscope; assay type: cell-based; conditions: for cpe = foci of cytopathic effect: mink lung cells, average of two shell vials
Method: as §5
Mink lung cells were prepared as described in Example 1. Cells were then infected with HSV-1 (originally from clinical specimens but passaged once in tissue culture so virus content is assured). The HSV-1 culture fluid was diluted 1:1000 before use for inoculation. In each shell vial, 0.2 ml of inoculum was used. After centrifuging for 45 minutes at 700×g at 23° C., 0.5 ml of Opti-MEM with 2% fetal calf serum was added to each vial and incubated overnight at 37° C. The following day, the cytopathic effect of the inoculated culture was observed under light microscope. The results are reported in Table 2 and are from the average of two shell vials.

CCCC(=O)[O-].[Na+] [NaB, sodium butyrate]
Treated: average # of nuclei staining from three shell vials (CMV in MRC-5 cells; 80 mM sodium butyrate 24 hours before CMV infection, MRC-5, cell age 4 days, CaCl2, DMSO, dexamethasone after infection): 4
counts of positive stained nuclei from 2 shell vials (CMV in MRC-5 cells; CaCl2, DMSO, dexamethasone after infection, inoculum 10^-0 (no dilution)): 39/29
counts of positive stained nuclei from 2 shell vials (CMV in MRC-5 cells; CaCl2, DMSO, dexamethasone after infection, inoculum 10^-1 (1:10 dilution)): 3/1
counts of positive stained nuclei from 2 shell vials (CMV in MRC-5 cells; CaCl2, DMSO, dexamethasone after infection, inoculum 10^-2 (1:100 dilution)): 0/0
MRC-5 cells # of stained nuclei (CMV in MRC-5 cells; NaB 10 mM before CMV infection): 2 and 3
MRC-5 cells # of stained nuclei (CMV in MRC-5 cells; NaB 20 mM before CMV infection): 2
MRC-5 cells # of stained nuclei (CMV in MRC-5 cells; NaB 80 mM before CMV infection): 7 and 6
# of Foci (average # of stained nuclei counted from three shell vials) ([1]; time of treatment 2 hours before CMV infection): 126
# of Foci (average # of stained nuclei counted from three shell vials) ([1]; time of treatment 8 hours before CMV infection): 306
enhancement of CMV expression ([1]; 2 hour treatment of mink lung cells with NaB (80 mM)): more than a two fold enhancement
time of treatment required for optimum enhancement of CMV expression ([1]; mink lung cells, 80 mM NaB): at least 8 hours
effect on susceptibility of mink lung cells to CMV infection at different cell age (in words) ([2]; 80 mM NaB, cell age 2 to 7 days, Table 5): enhanced the susceptibility
Treated: average # of nuclei staining from three shell vials ([2]; cell age 2 days): 123*
Treated: average # of nuclei staining from three shell vials ([2]; cell age 3 days): 121
Treated: average # of nuclei staining from three shell vials ([2]; cell age 5 days): 78
Treated: average # of nuclei staining from three shell vials ([2]; cell age 7 days): 30
counts of positive stained nuclei from 2 shell vials ([2]; cell age 2 days, inoculum 10^-0 (no dilution)): 232/220
counts of positive stained nuclei from 2 shell vials ([2]; cell age 2 days, inoculum 10^-1 (1:10 dilution)): 44/52
counts of positive stained nuclei from 2 shell vials ([2]; cell age 2 days, inoculum 10^-2 (1:100 dilution)): 5/2
counts of positive stained nuclei from 2 shell vials ([2]; cell age 3 days, inoculum 10^-0 (no dilution)): 242/309
counts of positive stained nuclei from 2 shell vials ([2]; cell age 3 days, inoculum 10^-1 (1:10 dilution)): 47/43
counts of positive stained nuclei from 2 shell vials ([2]; cell age 3 days, inoculum 10^-2 (1:100 dilution)): 1/2
# of Foci (average # of stained nuclei counted from three shell vials) ([2]; time of treatment 4 hours before CMV infection): 234
# of Foci (average # of stained nuclei counted from three shell vials) ([2]; time of treatment 6 hours before CMV infection): 276
# of Foci (average # of stained nuclei counted from three shell vials) ([2]; time of treatment 18 hours before CMV infection): 360*
response of mink lung cells to NaB treatment versus NaB treated MRC-5 cells (in words) ([2]; CMV infection, Table 3): better response
# positive stained nuclei ([2]; NaB 5 mM, 16 to 24 hours before CMV inoculation, mink lung cells): 22
Mink lung cells # of stained nuclei ([2]; NaB 10 mM before CMV infection): 7 and 9
# positive stained nuclei ([2]; NaB 10 mM before CMV inoculation, mink lung cells): 30
Mink lung cells # of stained nuclei ([2]; NaB 20 mM before CMV infection): 12
# positive stained nuclei ([2]; NaB 20 mM before CMV inoculation, mink lung cells): 38
Mink lung cells # of stained nuclei ([2]; NaB 40 mM before CMV infection): 12 and 23
# positive stained nuclei ([2]; NaB 40 mM before CMV inoculation, mink lung cells): 71
Mink lung cells # of stained nuclei ([2]; NaB 80 mM before CMV infection): 26 and 32
# positive stained nuclei ([2]; NaB 80 mM before CMV inoculation, mink lung cells): 85
increase in number of stained cells as compared with untreated mink lung cells ([2]; NaB 80 mM, CMV, mink lung cells): about 10 fold
sensitivity for CMV isolation and detection versus MRC-5 cells (in words) ([2]; NaB treated mink lung cells, Table 1): far superior sensitivity
optimum concentration for growth of CMV in mink lung cells ([2]; Table 1): about 80 mM
virus detection at high dilution of inoculum (in words) ([2]; mink lung cells treated with NaB 80 mM, Table 4): the virus is still detected
cpe = foci of cytopathic effect (HSV-1 in mink lung cells; NaB 2.5 mM, 16 to 24 hours before HSV-1 infection (1:1000)): 18
cpe = foci of cytopathic effect (HSV-1 in mink lung cells; NaB 5.0 mM before HSV-1 infection): 20
cpe = foci of cytopathic effect (HSV-1 in mink lung cells; NaB 10.0 mM before HSV-1 infection): 22
cpe = foci of cytopathic effect (HSV-1 in mink lung cells; NaB 20 mM before HSV-1 infection): 12
sensitivity for HSV isolation and detection versus RK cells (in words) (HSV-1 in mink lung cells; NaB treated mink lung cells, Table 2): comparable sensitivity
